According to US20080009480A1, “CYCLOPENTA[b][1,4]DIAZEPINO[6,7,1-hi]INDOLES AND DERIVATIVES” (Wyeth, priority 2000, published 2008):
pKd, pKi: −log10 of the molar value. Like-named read-outs stand apart in the source and are kept apart here.

What was measured:
[1] = target: T1, human 5-hydroxytryptamine2C (h5HT2C) receptor (Homo sapiens, UniProt P28335); assay: 5HT2C receptor binding test procedure ([125I]DOI displacement, CHO cell membranes); conditions: for Ki: 5-HT2C Affinity DOI/Agonist Binding (Ki, μM)
T1 sequence (P28335 33-458): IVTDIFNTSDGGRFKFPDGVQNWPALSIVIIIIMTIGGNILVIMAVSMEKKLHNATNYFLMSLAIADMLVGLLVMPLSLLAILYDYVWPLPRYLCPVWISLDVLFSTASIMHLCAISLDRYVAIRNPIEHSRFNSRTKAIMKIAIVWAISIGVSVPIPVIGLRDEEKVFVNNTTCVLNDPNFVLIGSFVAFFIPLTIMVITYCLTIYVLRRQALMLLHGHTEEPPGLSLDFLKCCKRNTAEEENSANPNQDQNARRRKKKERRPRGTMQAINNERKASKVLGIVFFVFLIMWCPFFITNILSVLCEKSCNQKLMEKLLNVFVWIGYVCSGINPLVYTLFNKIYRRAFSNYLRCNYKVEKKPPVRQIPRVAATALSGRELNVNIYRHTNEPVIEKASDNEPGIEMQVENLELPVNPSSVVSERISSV

male Sprague-Dawley rats = assay: Effects of compounds on feeding behavior in rats (24 hr fast, 2 hour food intake); format: in vivo, rat; conditions: ip, dose giving 50% reduction in food intake
Experimental: Effects of Compounds on Feeding Behavior in Rats
Eight (8) male Sprague-Dawley rats weighing 150-180 g were separated into individual cages and acclimated to a powdered diet for 2 weeks. During this period and throughout the test procedure, the food cup and the animals were weighed daily. Following the acclimation period, animals were fasted for 24 hours and then injected with either vehicle or one of 4 doses of the test compound. Food intake was assessed at 2 and 24 hours following compound administration. Compounds to be evaluated were injected 1-2× per week until all animals had received all doses of the test compound. The order of doses were chosen using to a modified Latin Square design. Additional studies may be conducted in satieted rats at the start of the dark cycle. Compounds were injected i.p, s.c. or p.o. At the end of the study effects of the test compound on food intake was evaluated using a repeated measures ANOVA. Data were collected were 2 hour food intake (g). Data were subjected to one-way ANOVA with posthoc t-tests to assess group differences. Where appropriate, ED50 values were calculated.

human 5-HT2C receptor = target: T2, human 5-HT2C receptor (Homo sapiens, UniProt P28335); assay: Stimulation of [3H] inositol monophosphate production by 5HT2C agonists in transfected CHO cells; format: cell-based; conditions: read-out: 5HT2C % Emax (5HT, 100%)
T2 construct: expressed in transfected cells; host or cells: CHO cells
T2 sequence (P28335 33-458): T1 sequence (P28335 33-458)
Experimental: One (1) ml of maintenance medium containing 1 μCi/ml myo-[^3H] inositol was added to each well. After 48 hours labeling, the cells were washed once with 0.5 ml DMEM containing 25 mM HEPES and 10 mM LiCl, then preincubated with the medium for 30 min (antagonists were included in this period if tested). At the end of the preincubation, the medium was removed, the cells were then incubated with test compounds (in presence of antagonists if needed) for 30 min. The reaction was terminated by removal of the incubation solution and addition of 0.5 ml ice-cold 5% PCA, followed by 15 to 30 min incubation on ice. 200 μl of 0.5 M Tes/1.5 M K2CO3 was added to each well to neutralize to pH 7, and plates were left on ice for another 15 to 30 min to precipitate all salts. The liquid and solid phases were separated by centrifugation.
A portion (350 μl) of the upper aqueous phase was applied to Dowex AG-1X8 (formate form, 100-200 mesh) columns. The columns were then washed stepwise with 10 ml of water and 10 ml of 25 mM ammonium formate to remove free myo-[^3H]inositol and deacylated phosphoinositol, respectively. Finally 10 ml of 0.2 M ammonium formate solution was applied to the columns to elute [^3H] inositol monophosphate ([^3H] IP1) directly into scintillationvials.
A 3-parameter logistic function is used to generate estimate of EC50/IC50.

[2] = rat; Martin et al. 1989; cited from earlier work
[3] = several animal species and humans; Cowen et al. 1995; cited from earlier work

C[C@@H]1NCCN2c3c1cccc3[C@@H]1CCC[C@@H]12 (relative stereo) [Example 12, rel-(4S,7bS,10aS)-4-Methyl-1,2,3,4,8,9,10,10a-Octahydro-7bH-Cyclopenta[b][1,4]Diazepino[6,7,1-hi]Indole]
Ki ([1]; [125I]DOI agonist binding): > 5 µM

C[C@H]1NCCN2c3c1cccc3[C@@H]1CCC[C@@H]12 (relative stereo) [Example 13, rel-(4R,7bS,10aS)-4-Methyl-1,2,3,4,8,9,10,10a-Octahydro-7bH-Cyclopenta[b][1,4]Diazepino[6,7,1-hi]Indole]
Ki ([1]; [125I]DOI agonist binding): 0.31 µM

CC1CN2c3c(cccc3C3CCCC32)CN1 (single isomer, unassigned) [Example 7]
Ki ([1]; [125I]DOI agonist binding): 6 µM

CC1CN2c3c(cccc3C3CCCC32)CN1 (single isomer, unassigned) [Example 8]
Ki ([1]; [125I]DOI agonist binding): 5.9 µM

CC1CN2c3c(cccc3C3CCCC32)CN1 (single isomer, unassigned) [Example 9]
Ki ([1]; [125I]DOI agonist binding): 0.91 µM

CC1CN2c3c(cccc3C3CCCC32)CN1 (single isomer, unassigned) [Example 10]
Ki ([1]; [125I]DOI agonist binding): 4.3 µM

OC[C@H]1CN2c3c(cccc3C3CCCC32)CN1 (single isomer, unassigned) [Example 11]
Ki ([1]; [125I]DOI agonist binding): 1.9 µM

c1cc2c3c(c1)c1c(n3CCNC2)CCC1 [Example 1, 1,2,3,4,9,10-Hexahydro-8H-cyclopenta[b][1,4]diazepino[6,7,1-hi]indole]
melting point: 66 to 68 °C

c1cc2c3c(c1)C1CCCC1N3CCNC2 (stereo not drawn) [Example 2, 1,2,3,4,8,9,10,10a-octahydro-7bH-cyclopenta[b][1,4]diazepino[6,7,1-hi]indole]
ED50 (male Sprague-Dawley rats; Rattus norvegicus, read-out: ED50): 8.05 mg/kg
Emax (human 5-HT2C receptor): 110%

c1cc2c3c(c1)[C@@H]1CCC[C@@H]1N3CCNC2 [Example 4A, (7bS,10aS)-1,2,3,4,8,9,10,10a-octahydro-7bH-cyclopenta-[b][1,4]diazepino-[6,7,1-hi]indole]
Emax (human 5-HT2C receptor): 40%

c1cc2c3c(c1)[C@H]1CCC[C@H]1N3CCNC2 [Example 4B, 7bR,10aR)-1,2,3,4,8,9,10,10a-octahydro-7bH-cyclopenta-[b][1,4]diazepino[6,7,1-hi]indole]
ED50 (male Sprague-Dawley rats): 2.93 mg/kg

Cc1cc2c3c(c1)c1c(n3CCNC2)CCC1 [Example 6, 6-Methyl-1,2,3,4,9,10-hexahydro-8H-cyclopenta[b][1,4]diazepino[6,7,1-hi]indole]
melting point: 168 to 170 °C
pKi ([1]; read-out: 5HT2C Affinity DOI/Agonist binding (Ki), [125I]DOI agonist binding): 6.01

CSc1ccc2c(c1)C(N1CCN(C)CC1)Cc1ccccc1S2 (stereo not drawn) [Methiothepin, reference compound]
pKi ([1]; reference compounds, [125I]DOI binding, h5HT2C in CHO membranes, read-out: Ki value and 95% confidence interval): 8.34

COc1cc(CC(C)N)c(OC)cc1I (stereo not drawn) [[^125I] DOI, reference compound]
pKd ([1]; read-out: dissociation constant, KD of [125I] DOI at the human serotonin 5HT2C receptor, saturation binding with increasing concentrations of [125I] DOI): 9.40

Clc1cccc(N2CCNCC2)c1 [mCPP, meta-chlorophenylpiperazine]
effect on conditioned avoidance responding (CAR) [2]: block conditioned avoidance responding
effect on food intake [3]: decreases food intake
